Measured values from the NIST ThermoML archive (doi:10.1021/je800077r).

Assays:
[1] = xn = mol fraction of the nth substance listed; conditions: 101 kPa, Liquid; for speed of sound: Sing-around technique in a fixed-path interferometer; for mass density: Vibrating tube method
[2] = refractive index (Na D-line) (dimensionless); xn = mol fraction of the nth substance listed; conditions: 101 kPa, Liquid, Standard Abbe refractometry

CCCCCCn1cc[n+](C)c1.F[P-](F)(F)(F)(F)F [1-hexyl-3-methylimidazolium hexafluorophosphate] + CCOC(C)=O
Conditions | mass density, 293.15 K [kg/m3] | mass density, 298.15 K [kg/m3] | mass density, 303.15 K [kg/m3] | refractive index, 293.15 K | refractive index, 298.15 K | refractive index, 303.15 K | speed of sound, 293.15 K [m/s] | speed of sound, 298.15 K [m/s] | speed of sound, 303.15 K [m/s]
[1], x1 = 0.0506 | 952.6 | 946.8 | 941 | – | – | – | 1185 | 1163 | 1142
[1], x1 = 0.104 | 998.7 | 993.2 | 987.6 | – | – | – | 1210 | 1189 | 1169
[1], x1 = 0.1978 | 1063.8 | 1058.6 | 1053.4 | – | – | – | 1252 | 1233 | 1215
[1], x1 = 0.2924 | 1114.6 | 1109.8 | 1104.9 | – | – | – | 1288 | 1271 | 1254
[1], x1 = 0.4549 | 1179.7 | 1175.2 | 1170.5 | – | – | – | 1335 | 1320 | 1305
[1], x1 = 0.4974 | 1193.3 | 1188.9 | 1184.2 | – | – | – | 1346 | 1331 | 1317
[1], x1 = 0.5904 | 1219.5 | 1215.2 | 1210.7 | – | – | – | 1366 | 1352 | 1338
[1], x1 = 0.7015 | 1245.8 | 1241.5 | 1237.2 | – | – | – | 1387 | 1374 | 1361
[1], x1 = 0.7926 | 1263.8 | 1259.8 | 1255.6 | – | – | – | 1403 | 1390 | 1378
[1], x1 = 0.8941 | 1281.6 | 1277.6 | 1273.8 | – | – | – | 1420 | 1407 | 1395
[1], x1 = 0.9459 | 1289.8 | 1285.8 | 1282 | – | – | – | 1429 | 1415 | 1403
[1], x1 = 1 | 1297.9 | 1293.7 | 1289.6 | – | – | – | 1438 | 1424 | 1411
[2], x1 = 0.0506 | – | – | – | 1.38064 | 1.37838 | 1.37606 | – | – | –
[2], x1 = 0.104 | – | – | – | 1.3874 | 1.38537 | 1.38312 | – | – | –
[2], x1 = 0.1978 | – | – | – | 1.39645 | 1.39415 | 1.39194 | – | – | –
[2], x1 = 0.2924 | – | – | – | 1.402 | 1.40007 | 1.39821 | – | – | –
[2], x1 = 0.4549 | – | – | – | 1.40845 | 1.4069 | 1.40523 | – | – | –
[2], x1 = 0.4974 | – | – | – | 1.40969 | 1.40821 | 1.40664 | – | – | –
[2], x1 = 0.5904 | – | – | – | 1.41237 | 1.41083 | 1.40893 | – | – | –
[2], x1 = 0.7015 | – | – | – | 1.41438 | 1.41296 | 1.4115 | – | – | –
[2], x1 = 0.7926 | – | – | – | 1.41592 | 1.41446 | 1.41307 | – | – | –
[2], x1 = 0.8941 | – | – | – | 1.41731 | 1.41594 | 1.41454 | – | – | –
[2], x1 = 0.9459 | – | – | – | 1.41797 | 1.41662 | 1.41526 | – | – | –
[2], x1 = 1 | – | – | – | 1.41923 | 1.41787 | 1.41643 | – | – | –

CCOC(C)=O [ethyl acetate] + CCCCCC
Conditions | mass density, 293.15 K [kg/m3] | mass density, 298.15 K [kg/m3] | mass density, 303.15 K [kg/m3] | refractive index, 293.15 K | refractive index, 298.15 K | refractive index, 303.15 K | speed of sound, 293.15 K [m/s] | speed of sound, 298.15 K [m/s] | speed of sound, 303.15 K [m/s]
[1], x2 = 0 | 900.5 | 894.4 | 888.2 | – | – | – | 1162 | 1141 | 1111
[1], x2 = 0.0469 | 884.3 | 878.2 | 872.2 | – | – | – | 1152 | 1129 | 1099
[1], x2 = 0.0969 | 868 | 862 | 855.9 | – | – | – | 1141 | 1119 | 1089
[1], x2 = 0.1898 | 838.9 | 833.1 | 827.3 | – | – | – | 1125 | 1103 | 1074
[1], x2 = 0.2962 | 808.6 | 803 | 797.3 | – | – | – | 1111 | 1089 | 1061
[1], x2 = 0.3907 | 783.5 | 778 | 772.4 | – | – | – | 1101 | 1079 | 1053
[1], x2 = 0.5028 | 756 | 750.7 | 745.3 | – | – | – | 1093 | 1071 | 1046
[1], x2 = 0.598 | 734.5 | 729.3 | 724.1 | – | – | – | 1090 | 1067 | 1042
[1], x2 = 0.6995 | 713.1 | 708.1 | 703.1 | – | – | – | 1088 | 1066 | 1041
[1], x2 = 0.803 | 693.3 | 688.4 | 683.5 | – | – | – | 1089 | 1067 | 1043
[1], x2 = 0.9005 | 675.8 | 671.1 | 666.4 | – | – | – | 1093 | 1071 | 1047
[1], x2 = 0.9514 | 667.3 | 662.7 | 658.1 | – | – | – | 1096 | 1074 | 1051
[2], x2 = 0 | – | – | – | 1.37241 | 1.36977 | 1.36712 | – | – | –
[2], x2 = 0.0469 | – | – | – | 1.37193 | 1.36926 | 1.3666 | – | – | –
[2], x2 = 0.0969 | – | – | – | 1.37157 | 1.3689 | 1.36622 | – | – | –
[2], x2 = 0.1898 | – | – | – | 1.37105 | 1.36832 | 1.36559 | – | – | –
[2], x2 = 0.2962 | – | – | – | 1.3706 | 1.36785 | 1.36513 | – | – | –
[2], x2 = 0.3907 | – | – | – | 1.37053 | 1.36776 | 1.365 | – | – | –
[2], x2 = 0.5028 | – | – | – | 1.37066 | 1.36789 | 1.36511 | – | – | –
[2], x2 = 0.598 | – | – | – | 1.37101 | 1.36823 | 1.36547 | – | – | –
[2], x2 = 0.6995 | – | – | – | 1.3718 | 1.36896 | 1.36611 | – | – | –
[2], x2 = 0.803 | – | – | – | 1.37266 | 1.3698 | 1.36689 | – | – | –
[2], x2 = 0.9005 | – | – | – | 1.37381 | 1.37096 | 1.36803 | – | – | –
[2], x2 = 0.9514 | – | – | – | 1.3744 | 1.37157 | 1.36866 | – | – | –
